Experiments:
[1] = tested on: cerebellar granule neurons; assay: LK-induced apoptosis of cultured cerebellar granule neurons (MTT viability); type: cell-based, rat; conditions: for effect of MEK inhibitor on neuroprotection by GW5074: LK + 1 uM GW5074 with 40 uM PD98059 or 10 uM U0126
Method: Cultured cerebellar granule neurons undergo apoptosis when switched from HK to medium containing LK (D'Mello et al., 1993). […] Neuronal cultures were switched to medium containing LK, or LK medium containing different doses of GW5074. Cell viability was quantified 24 hours later. Control cultures received HK medium. […] Protection against LK-induced apoptosis is maximal at 1 uM.
Granule neuron cultures were obtained from dissociated cerebella of 7-8 day old rats as described previously (D'Mello et al., 1993). Cells were plated in Basal Eagle's Medium with Earles salts (BME) supplemented with 10% fetal bovine serum (FBS), 25 mM KCl, 2 mM glutamine (Gibco-BRL), and 100 ug/ml gentamycin on dishes coated with poly-L-lys ine in 24-well dishes at a density 1.0×10^6 cells/well, 1.2×10^7 cells/60 mm dish, or 3.0×10^7 cells/100 mm dish. Cytosine arabinofuranoside (10 uM) was added to the culture medium 18-22 hours after plating to prevent replication of non-neuronal cells. Cultures were maintained for 6-7 days prior to experimental treatments. For this, the cells were rinsed once and then maintained in low K^+ medium (serum-free BME medium, 5 mM KCl) or high K^+ medium (serum-free BME medium, supplemented with 20 mM KCl). When used to treat cultures, GW5074 was added at the time when cells were switched to LK medium. Treatment of cultures with pharmacological inhibitors was initiated 15 min prior to rinsing and was maintained through the subsequent incubation in LK or HK medium unless specified otherwise. For MPP+ and methylmercury treatments, 7-8 day old cultures were switched to HK medium containing 200 uM MPP+ or 0.5 uM methylmercury. Viability was assayed 24 hours later.
Neuronal survival was quantified by the MTT assay as previously described (Koulich et al., 2001). Briefly, the tetrazolium salt MTT [3-(4,5-dimethyl-2-thiazolyl)-2,5-diphenyl-2H tetrazolium bromide] was added to the cultures at a final concentration of 1 mg/ml, and incubation of the culture was continued in the CO2 incubator for a further 30 min at 37° C. The assay was stopped by adding lysis buffer [20% SDS in 50% N,N-dimethyl formamide, pH 4.7]. The absorbance was measured specrophotometrically at 570 nm after an overnight incubation at room temperature. The absorbance of a well without cells was used as background and subtracted. Results obtained using the MTT assays were confirmed using the fluorescein-diacetate method for quantification of cell viability, as previously described (D'Mello et al., 1993). Data are presented as mean+/−standard deviation. Statistical analysis was performed using ANOVA and Student-Neuman-Keuls' test.

[2] = tested on: cerebellar granule neurons; assay: Apoptosis of neurons infected with adenoviral dominant-negative Akt; type: cell-based, rat; conditions: LK + 1 uM GW5074 or 25 ng/ml IGF-1
Source text: Five day old neuronal cultures were infected with adenoviral vectors expressing either GFP or hemagluttinin (HA)-tagged dominant-negative Akt. […] Infected neurons were detected by positive staining for GFP or HA by immunocytochemistry. The proportion of apoptotic cells (condensed or fragmented nuclei) as a percentage of total infected neurons was quantified following DAPI-staining.
DnAkt and control recombinant adenovirus expressing green fluorescent protein (Ad-GFP) are propagated in HEK293T cells and purified by cesium chloride density gradient centrifugation. After quantification of titer, virus at an MOI of 10 are used to infect granule neuron cultures 5 days after plating by direct addition to the medium. Treatments are performed 24 hours after addition of virus.

Akt = Akt phosphorylation (Ser473) in neuronal cultures, Western blot; type: cell-based, rat; conditions: added to cultures already switched to LK
Method: The best-studied anti-apoptotic pathway in neurons is the PI-3 kinase—Akt signaling pathway (D'Mello et al., 1997; Dudek et al., 1997; Miller et al, 1997a). IGF-1, a potent survival-promotic factor for granule neurons mediates its effect by activating the PI-3 kinase-Akt pathway (Datta et al., 1997; Dudek et al., 1997; D'Mello et al., 1998). […] Switching cerebellar granule neurons from serum-containing HK medium in which they are cultured and allowed to mature, to serum-free LK or HK medium, causes a rapid downregulation of Akt phosphorylation and activity, which can be prevented by IGF-1 (Kumari et al., 2001). […] The same blot was reprobed with an antibody against phospho-Gskβ. Also loaded on the gel were lysates from untreated cultures (maintained in medium containing serum and high K+) and a culture treated for 1 hour with 25 ng/ml IGF-1. […] GSK3βis a proapoptotic molecule that is activated during apoptosis in many neuronal and normeuronal systems. Under survival promoting conditions GSK3β is kept inactivated by phosphorylation, a modification that can be induced by Akt. […] Another proapoptotic molecule that is phosphorylated and inactivated by Akt is the transcription factor, Forkhead (Linseman et al., 2002). […] Switching of neurons to LK medium leads to a rapid downregulation of Akt activity within 2 hours.
(§1) For whole-cell lysates, the culture medium was discarded, the neurons washed twice with ice-cold phosphate-buffered saline (PBS), and lysed in lysis buffer (1% Triton, 20 mM Tris-HCl (pH 7.5), 150 mM NaCl, 1 mM Na2EDTA, 1 mM EGTA, 2.5 mM sodium pyrophosphate, 1 mM beta-glycerophosphate, 1 mM Na3VO4, 1 μg/ml leupeptin and 1× protease inhibitor mixture). Protein concentrations were measured using a Bradford protein assay kit (Bio-Rad), and equivalent amounts of protein were mixed with 6×SDS-PAGE sample buffer. […] After staining with Ponceau S to verify uniformity of protein loads/transfer, the membranes were analyzed for immunoreactivity. […]

C-Raf = molecular target: T1, C-Raf (Rattus norvegicus, UniProt P11345); assay: Activity of C-Raf immunoprecipitated from neuronal lysates, GST-MEK substrate, phospho-MEK Western; type: cell-based
T1 construct: Activities of endogenous C-Raf and B-Raf activity was assayed by measuring the ability of kinase immunoprecipitated from neuronal lysates; endogenous in cells; host or cells: primary rat cerebellar granule neurons
T1 sequence (P11345 whole entry): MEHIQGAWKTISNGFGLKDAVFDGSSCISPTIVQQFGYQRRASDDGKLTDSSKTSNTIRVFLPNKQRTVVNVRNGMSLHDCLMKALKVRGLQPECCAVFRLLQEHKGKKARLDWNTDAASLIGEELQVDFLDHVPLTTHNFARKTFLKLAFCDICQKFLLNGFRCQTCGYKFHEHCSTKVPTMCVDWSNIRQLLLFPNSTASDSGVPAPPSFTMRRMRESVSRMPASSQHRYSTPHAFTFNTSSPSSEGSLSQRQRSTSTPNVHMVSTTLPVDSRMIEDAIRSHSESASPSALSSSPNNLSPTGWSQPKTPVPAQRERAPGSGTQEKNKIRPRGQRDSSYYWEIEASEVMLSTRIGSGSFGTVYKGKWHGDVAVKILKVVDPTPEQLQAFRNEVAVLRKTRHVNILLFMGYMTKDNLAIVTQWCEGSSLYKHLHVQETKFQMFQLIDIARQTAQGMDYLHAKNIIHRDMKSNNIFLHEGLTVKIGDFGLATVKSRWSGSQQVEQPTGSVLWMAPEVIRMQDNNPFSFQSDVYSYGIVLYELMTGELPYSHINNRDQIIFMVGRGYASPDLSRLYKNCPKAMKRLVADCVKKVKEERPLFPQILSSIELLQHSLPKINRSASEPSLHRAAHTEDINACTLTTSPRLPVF
Method: The immunoprecipitated C-Raf was used in in vitro kinase assays using GST-MEK as substrate and the reaction products subjected to Western analysis. Phosphorylation of MEK was detected using a phospho-MEK antibody. […] After 1 hour of treatment, the cultures were lysed, C-Raf immunoprecipitated from the lysate and used in an in vitro kinase assay with MEK as substrate. The reaction mixture was subjected to Western analysis using a phospho-MEK antibody as probe.
(Hall-Jackson et al., 1999). […] Lysates from the cultures were used in a kinase reaction with MEK as substrate. […] Phosphorylation of MEK was detected by Western blot analysis using an phospho-MEK antibody and the same blot was reprobed with a C-Raf antibody.
After treatment, cultures of 7-8-day old neurons were washed twice with ice-cold PBS and lysed in ice cold lysis buffer. The lysates were centrifuged for 10 min at 10,000 rpm at 4° C. Protein concentrations of the supernatant were measured using a Bradford protein assay kit (Bio-Rad), and equivalent amounts of protein were incubated overnight with primary antibody (1.0-2 ug) and then for 2 h with 20 ul Protein A/G PLUS-Agarose (Santa Cruz Biotech.) Immunoprecipitates were collected by centrifugation at 2,500 rpm for 5 min at 4° C. and washed three times with lysis buffer, and pellets resuspended in electrophoresis sample buffer (187.5 mM Tris-HCl (pH 6.8 at 25° C.), 6% SDS, 30% glycerol, 150 mM DTT, 0.03% bromophenol blue), boiled for 4 min and subjected to SDS-polyacrylamide gel electrophoresis.
Activities of endogenous C-Raf and B-Raf activity was assayed by measuring the ability of kinase immunoprecipitated from neuronal lysates to phosphorylate a kinase-dead recombinant GST-MEK1 substrate. Following immunoprecipitation and multiple washes with lysis buffer, lysis buffer supplemented with 350 mM NaCl, and kinase buffer (25 mM HEPES pH 7.4 and 10 mM MgCl2), in vitro kinase assays are performed on the immune complexes using purified recombinant GST-MEK1 K97M protein as a substrate in kinase buffer supplemented with 85 μM ATP for 35 minutes at 30° C. Reactions are stopped by the addition of 3×SDS sample buffer and boiled for five minutes. Proteins are resolved by SDS-PAGE and subjected to Western blotting. The level of phosphorylated MEK is detected by a phospho-MEK antibody.

ERK 1/2 = ERK 1/2 phosphorylation in neuronal cultures, Western blot; type: cell-based, rat; conditions: LK + 1 uM GW5074 + 40 uM PD98059, 1 hour
Source text: Activation of all three Raf proteins results in activation of MEK and ERK.
Survival of cerebellar granule neurons can be maintained by BDNF and this effect of BDNF is mediated by the Raf-MEK-ERK signaling pathway (Bonni et al., 1999). The Raf-MEK-ERK pathway is also involved in promoting survival of other neuronal and normeuronal cell types. A potent blocker of the Raf-MEK-ERK pathway is PD98059 (Alessi et al., 1995). In paradigms in which the Raf-MEK-ERK pathway mediates neuronal survival, such as BDNF-treated cerebellar granule neurons, the presence of […] blocks survival (Bonni et al., 1999). […] Lysates from the cultures were subjected to Western blotting using an antibody specific for phospho-ERK.
as §1

`N#CC(=C(/N)Sc1ccccc1N)/C(C#N)=C(\N)Sc1ccccc1N` [U0126] was tested, and the “effect of MEK inhibitor on neuroprotection by GW5074” value [1] was “failed to reduce survival by GW5074”.

“IGF-1: a potent survival-promotic factor for granule neurons” was tested, and the “effect of dominant-negative Akt on survival promotion” value [2] was “reduces the survival-promoting effect of IGF-1” and the “de novo Akt activation after downregulation in LK” value (Akt) was “robust increase in Akt phosphorylation”.

For `Cc1ccc(NC(=O)c2cccc(N(C)C)c2)cc1NC(=O)c1ccc(O)cc1` [ZM336372, N-[5-(3-Dimethylaminobenzamido)-2-methylphenyl]-4-hydroxybenzamide, reference compound], the “inhibition of LK-mediated apoptosis” value ([1]; LK medium containing 100 uM ZM336372) was “inhibits LK-mediated apoptosis”, the “effect on immunoprecipitated C-Raf when added in vitro” value (C-Raf; 10 uM ZM336372 added to kinase reaction mixture) was “inhibited in vitro by ZM336372” and the “activity of C-Raf immunoprecipitated from treated cultures” value (C-Raf; LK + 50 uM ZM336372, 1 hour) was “elevated activity”.

For `COc1cccc(-c2cc(=O)c3ccccc3o2)c1N` [PD98059, reference compound], the “effect of MEK inhibitor on neuroprotection by GW5074” value [1] was “no effect on the neuroprotective effect of GW5074” and the “effect on stimulation of ERK by GW5074” value (ERK 1/2) was “blocks the stimulation of ERK by GW5074”.

For `CC(C)=CCC/C(C)=C/CC/C(C)=C/CSc1ccccc1C(=O)O` [FTS, S-trans, trans-farnesylthiosalicylic acid], the “effect of Ras antagonist on neuroprotection by GW5074” value ([1]; LK + 1 uM GW5074 + 10 uM FTS, 24 hour) was “blocks the neuroprotective effect of GW5074”.

— US20050250837A1, “Use of C-Raf inhibitors for the treatment of neurodegenerative diseases” (priority 2002, published 2005)
